Measured values reported in patent US20210369768A1, “METAL DI-AMINO ACID CHELATES OR METAL TRI-AMINO ACID CHELATES” (Balchem Corporation, priority 2020, published 2021).
Peptide text beside a SMILES is read from it.

Legend:
[1] = test system: Caco-2 cells
Description: (§1) Magnesium uptake colorimetric assay kits were purchased from BioVision (Catalog #385-100). […] HEK-293 (ATCC® CRL-1573TM) cells, Caco-2 (ATCC® HTB-37TM) cells, and Dulbecco's Modified Eagle Medium (ATCC® 30-2002) were purchased from ATCC. Penicillin streptomycin (10,000 U/mL), fetal bovine serum (FBS), and trypsin/EDTA (0.25%) were purchased from Gibco™.
(§2) Caco-2 cells were cultured from Liquid N2 frozen stocks and rapidly thawed to RT using a water bath at 37° C.; cryopreservation media was removed with a micropipette after cells were pelleted via centrifugation for 8-10 minutes at 125 g. Cells were resuspended in 1 mL of room temperature DMEM and cultured in 14 mLs DMEM (total volume of 15 mLs) with a seeding density of 3.6×10^4 cells/cm^2 in a T-75 cm^2 culture flask and left to grow in an incubator at 37° C. and 5% CO2. Cells were sub-cultured at 90% confluency, and sub-culturing occurred a minimum of five times before use in uptake assays. When ready-to-use cultures were at 90% confluency, old DMEM media was pipetted off and 3-4 mLs of trypsin was added—the trypsinized culture flask was placed back in the incubator for 5-10 minutes to detach cells. Once detached, the culture flask was rinsed with 6-8 mLs of fresh DMEM to neutralize the trypsin -cells for uptake assays were counted utilizing a DeNovix CellDrop™. Once counted, cells were pelleted down via centrifugation at 125 g for 8-10 minutes, and the neutralized trypsin-media supernatant was pipetted off. Cells were resuspended in 5 mLs magnesium assay buffer for cellular uptake assay.
(§3) Cellular uptake data was collected at incubation times of 1 hr (required kit incubation time), 4 hrs (the amount of time required for uptake in the GI), and 24 hrs (the amount of time required for a complex to clear the GI).
(§4) Kinetics were evaluated utilizing the slope of the line of uptake of the complex in the Caco-2 cells.

[2] = Stability of the complex in solution via 1H NMR; assay type: physicochemical; conditions: 1H NMR in D2O
Description: At 72 hrs, an observable upfield shift occurs, which may be due to isomer formation. There is no observable change in proton integration. NMR taken in D2O.

[3] = test system: Caco-2 cells; assay: Cellular uptake of magnesium complexes in Caco-2 cells (BioVision colorimetric magnesium uptake assay kit); conditions: Example 12, FIG. 72
Description: as §1, §2, §3, §4

Molecule	cellular uptake at 24 hrs [1]	stability in solution [2]	cellular uptake in CaCo-2 cell line relative to other magnesium complexes [3]
NCC(=O)NCC(=O)NCC(=O)[O-].[Mg+2].[OH-] [Mg(G3), magnesium 2-[[2-[(2-aminoacetyl)amino]acetyl]amino]acetic acid chelate] (H-Gly-Gly-Gly-OH)	cell saturation	considerable stability for periods up to 72 hrs	
NCC(=O)[O-].NCC(=O)[O-].[Mg+2] [MgBG, magnesium bisglycinate, reference compound]			significantly less cellular uptake than Mg(G3)
magnesium diglycine [MgG2]			relatively linear uptake in the CaCo-2 cell line similar to that of both magnesium chloride (MgCl2) and magnesium bisglycinate (MgBG)
